Reference: ChEMBL document CHEMBL1201862, “PubChem BioAssay data set” (2004)
Where “and” joins values, the source holds several entries; their conditions need not be identical. Identical values can stand only once.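 Grown in 96-well plates, cells were treated for 48 hours with each compound at five concentrations. Insufficient inhibition: endpoint recorded as highest concentration tested. Abbreviation: GI50, concentration required for 50% inhibition of growth.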 Calls of active or inactive are those of the source. Rule as the data show it: active = GI50 up to about 1.1 µM and inactive = higher.

How the values were obtained:
Assay in all cases: inhibition of tumour cell growth, NCI panel, 48 h
[1] = tested on: 786-0
[2] = tested on: A549
[3] = tested on: ACHN
[4] = tested on: BT-549
[5] = tested on: CCRF-CEM
[6] = tested on: COLO 205
[7] = tested on: DU-145
[8] = tested on: HCC 2998
[9] = tested on: HCT-15
[10] = tested on: HL-60
[11] = tested on: HOP-92
[12] = tested on: HT-29
[13] = tested on: Hs-578T
[14] = tested on: IGROV-1
[15] = tested on: K562
[16] = tested on: KM12
[17] = tested on: LOX IMVI
[18] = tested on: M14
[19] = tested on: MCF7
[20] = tested on: MDA-MB-231
[21] = tested on: MDA-MB-435
[22] = tested on: MOLT-4
[23] = tested on: Malme-3M
[24] = tested on: NCI-H226
[25] = tested on: NCI-H23
[26] = tested on: NCI-H460
[27] = tested on: NCI-H522
[28] = tested on: OVCAR-3
[29] = tested on: OVCAR-4
[30] = tested on: OVCAR-5
[31] = tested on: OVCAR-8
[32] = tested on: RPMI-8226
[33] = tested on: RXF 393
[34] = tested on: SF-268
[35] = tested on: SF-295
[36] = tested on: SK-MEL-28
[37] = tested on: SK-MEL-2
[38] = tested on: SK-MEL-5
[39] = tested on: SN12C
[40] = tested on: SNB-19
[41] = tested on: SNB-75
[42] = tested on: SR
[43] = tested on: SW-620
[44] = tested on: T47D
[45] = tested on: TK-10
[46] = tested on: U-251
[47] = tested on: UACC-257
[48] = tested on: UACC-62
[49] = tested on: UO-31
[50] = tested on: A498
[51] = tested on: CAKI-1
[52] = tested on: EKVX
[53] = tested on: NCI/ADR-RES
[54] = tested on: PC-3
[55] = tested on: SF-539
[56] = tested on: SK-OV-3
[57] = tested on: HCT-116
[58] = tested on: HOP-62

CCOC(=O)c1c(N)n(-c2ccccc2)c(=O)n(-c2ccccc2)c1=O
GI50 [1]: > 100 µM (inactive) | GI50 [2]: > 100 µM (inactive) | GI50 [3]: > 100 µM (inactive) | GI50 [4]: > 100 µM (inactive) | GI50 [5]: > 10 µM (inactive) | GI50 [6]: > 100 µM (inactive) | GI50 [7]: > 100 µM (inactive) | GI50 [8]: > 100 µM (inactive) | GI50 [9]: > 100 µM | GI50 [10]: > 100 µM (inactive) | GI50 [11]: > 100 µM (inactive) | GI50 [12]: > 100 µM (inactive) | GI50 [13]: > 100 µM (inactive) | GI50 [14]: > 100 µM (inactive) | GI50 [15]: > 100 µM (inactive) | GI50 [16]: > 100 µM (inactive) | GI50 [17]: > 100 µM (inactive) | GI50 [18]: > 100 µM (inactive) | GI50 [19]: > 100 µM (inactive) | GI50 [20]: > 100 µM (inactive) | GI50 [21]: > 100 µM (inactive) | GI50 [22]: > 100 µM (inactive) | GI50 [23]: > 100 µM (inactive) | GI50 [24]: > 100 µM (inactive) | GI50 [25]: > 100 µM (inactive) | GI50 [26]: > 100 µM (inactive) | GI50 [27]: > 100 µM (inactive) | GI50 [28]: > 100 µM (inactive) | GI50 [29]: > 100 µM (inactive) | GI50 [30]: > 100 µM (inactive) | GI50 [31]: > 100 µM (inactive) | GI50 [32]: > 100 µM (inactive) | GI50 [33]: > 100 µM (inactive) | GI50 [34]: > 100 µM (inactive) | GI50 [35]: > 100 µM (inactive) | GI50 [36]: > 100 µM (inactive) | GI50 [37]: > 100 µM (inactive) | GI50 [38]: > 100 µM (inactive) | GI50 [39]: > 100 µM (inactive) | GI50 [40]: > 100 µM (inactive) | GI50 [41]: > 100 µM (inactive) | GI50 [42]: > 100 µM (inactive) | GI50 [43]: > 100 µM (inactive) | GI50 [44]: > 100 µM (inactive) | GI50 [45]: > 100 µM (inactive) | GI50 [46]: > 100 µM (inactive) | GI50 [47]: > 100 µM (inactive) | GI50 [48]: > 100 µM (inactive) | GI50 [49]: > 100 µM (inactive)

CC(C)(C)C1CCC2c3c([nH]c4ccccc34)C3C(=O)N(c4ccc(Cl)cc4)C(=O)C3C2C1 (stereo not given)
GI50 [50]: > 10 µM (inactive) | GI50 [4]: > 100 µM (inactive) | GI50 [5]: > 10 µM (inactive) and 19.5 µM (inactive) | GI50 [10]: > 10 µM (inactive) and 17.7 µM (inactive) | GI50 [17]: 0.012 µM (active) | GI50 [19]: 31.3 µM (inactive) | GI50 [23]: > 10 µM (inactive) | GI50 [30]: 0.0209 µM (active) | GI50 [37]: > 10 µM (inactive) | GI50 [42]: > 10 µM (inactive) and 18 µM (inactive)

Cc1c(-c2c(C)c3ccccc3n2S(=O)(=O)c2ccccc2)n(S(=O)(=O)c2ccccc2)c2ccccc12
GI50 [1]: 0.019 µM (active) | GI50 [50]: > 100 µM (inactive) | GI50 [4]: > 100 µM (inactive) | GI50 [51]: 336 nM (active) | GI50 [5]: > 100 µM (inactive) | GI50 [52]: > 100 µM (inactive) | GI50 [10]: > 100 µM (inactive) | GI50 [11]: > 100 µM (inactive) | GI50 [13]: > 100 µM (inactive) | GI50 [15]: > 100 µM (inactive) | GI50 [18]: > 22.2 µM (inactive) | GI50 [20]: > 56.4 µM (inactive) | GI50 [21]: > 100 µM (inactive) | GI50 [22]: > 100 µM (inactive) | GI50 [23]: 0.0299 µM (active) | GI50 [24]: > 39.9 µM (inactive) | GI50 [25]: > 72.8 µM (inactive) | GI50 [26]: 0.0407 µM (active) | GI50 [27]: > 100 µM (inactive) | GI50 [53]: > 80 µM (inactive) | GI50 [28]: 5.62 µM (inactive) | GI50 [30]: > 51.6 µM (inactive) | GI50 [54]: > 37.1 µM (inactive) | GI50 [32]: > 100 µM (inactive) | GI50 [34]: > 100 µM (inactive) | GI50 [35]: > 100 µM (inactive) | GI50 [55]: 37.1 nM (active) | GI50 [36]: > 100 µM (inactive) | GI50 [37]: > 37.5 µM (inactive) | GI50 [56]: > 82.6 µM (inactive) | GI50 [40]: > 93.5 µM (inactive) | GI50 [41]: > 31.6 µM (inactive) | GI50 [45]: > 100 µM (inactive) | GI50 [47]: > 100 µM (inactive) | GI50 [48]: > 29.1 µM (inactive) | GI50 [49]: > 100 µM (inactive)

O=c1[nH]c2ccc([N+](=O)[O-])c(Cl)c2c2ccccc12
GI50 [1]: 5.78 µM (inactive) | GI50 [50]: 13.2 µM (inactive) | GI50 [2]: 4.7 µM (inactive) | GI50 [3]: 4.48 µM (inactive) | GI50 [4]: 4.04 µM (inactive) | GI50 [51]: 2410 nM (inactive) | GI50 [5]: 0.361 µM (active) | GI50 [6]: 5.18 µM (inactive) | GI50 [7]: 3.06 µM (inactive) | GI50 [52]: 5.9 µM (inactive) | GI50 [8]: 5.46 µM (inactive) | GI50 [57]: 313 nM (active) | GI50 [9]: 3.56 µM | GI50 [10]: 2.35 µM (inactive) | GI50 [58]: 10.8 µM (inactive) | GI50 [12]: 0.887 µM (active) | GI50 [13]: 3.86 µM (inactive) | GI50 [14]: 5.87 µM (inactive) | GI50 [15]: 0.634 µM (active) | GI50 [16]: 0.33 µM (active) | GI50 [17]: 1.68 µM (inactive) | GI50 [18]: 4.81 µM (inactive) | GI50 [19]: 0.258 µM (active) | GI50 [20]: 8.07 µM (inactive) | GI50 [21]: 2.1 µM (inactive) | GI50 [22]: 0.91 µM (active) | GI50 [23]: 11.6 µM (inactive) | GI50 [24]: 11.5 µM (inactive) | GI50 [25]: 5.87 µM (inactive) | GI50 [26]: 1.87 µM (inactive) | GI50 [27]: 3.13 µM (inactive) | GI50 [53]: 4.98 µM (inactive) | GI50 [28]: 3.72 µM (inactive) | GI50 [29]: 10.7 µM (inactive) | GI50 [30]: 5.04 µM (inactive) | GI50 [31]: 1.29 µM (inactive) | GI50 [32]: 0.586 µM (active) | GI50 [34]: 2.74 µM (inactive) | GI50 [35]: 2.62 µM (inactive) | GI50 [55]: 1100 nM (active) | GI50 [36]: 11 µM (inactive) | GI50 [37]: 6.1 µM (inactive) | GI50 [38]: 3.84 µM (inactive) | GI50 [56]: 1.66 µM (inactive) | GI50 [39]: 2.58 µM (inactive) | GI50 [40]: 1.91 µM (inactive) | GI50 [41]: 9.04 µM (inactive) | GI50 [42]: 1.85 µM (inactive) | GI50 [43]: 1.58 µM (inactive) | GI50 [44]: 19.8 µM (inactive) | GI50 [45]: 1.37 µM (inactive) | GI50 [46]: 4.43 µM (inactive) | GI50 [47]: 2.42 µM (inactive) | GI50 [48]: 3.79 µM (inactive) | GI50 [49]: 9.33 µM (inactive)
